Data published in Sander's compilation of Henry's law constants (doi:10.1136/oem.51.1.68).

Experiment: Henry solubility constant Hcp at 310 K (mol/(m3 Pa))
Settings: reference: Kaneko et al. (1994)

| Structure (SMILES) | Henry solubility constant Hcp at 310 K |
| --- | --- |
| CCCCOC(C)=O [butyl ethanoate] | 0.013 |
| CC(C)CO [2-methyl-1-propanol] | 0.44 |
| CCCCCOC(C)=O [pentyl ethanoate] | 0.0093 |
| CCCO [1-propanol] | 0.72 |
| CC(=O)OC(C)C [2-propyl ethanoate] | 0.013 |
| CC(C)O [2-propanol] | 0.58 |
| CC(=O)OCC(C)C [2-methylpropyl ethanoate] | 0.01 |

Next, values leading:

| Henry solubility constant Hcp at 310 K | Structure (SMILES) |
| --- | --- |
| 0.42 | CCCCCO [1-pentanol] |
| 0.33 | CCC(C)CO (centres undefined) [2-methyl-1-butanol] |
| 0.0088 | CC(=O)OCCC(C)C [3-methylbutyl ethanoate] |
| 0.021 | CCCOC(C)=O [propyl ethanoate] |
| 0.042 | COC(C)=O [methyl ethanoate] |
| 0.028 | CCOC(C)=O [ethyl ethanoate] |
| 0.83 | CCO [ethanol] |
